Patent US20160375019A1, “TREATMENT OF CHRONIC GRAFT VERSUS HOST DISEASE WITH SYK INHIBITORS” (Gilead Sciences, Inc., priority 2015, published 2016)

Tests used:
[1] = Kinetic Solubility in phosphate buffer at pH 7.4; type: physicochemical; conditions: 37 °C, aqueous buffer, kinetic from dmso stock; phosphate buffer pH 7.4
Method: The kinetic solubility of compounds in phosphate buffer at pH 7.4 was assessed. The compounds to be tested were dissolved in dimethylsulfoxide at a 10 mM concentration. Stock samples were diluted, 3 μl with 297 μl of the phosphate buffer at pH 7.4 (DulBecco's phosphate buffered saline (Sigma-Aldrich D8662), overall molarity is 0.149 M and pH 7.43). The samples were then incubated for 24 hours at 37° C. with shaking, the centrifuged and an aliquot taken and tested relative to a known standard concentration of 0.1 mM.

hepatocytes = type: in vitro ADME; conditions: human
Method: The human […] stability of the compounds as predicted hepatocyte clearance in L/hr/kg was assessed. Compounds to be tested were diluted to 200 μM (4 μl of 10 mM DMSO stock into 196 μl ACN:H2O (50:50). Propranolol was used as a positive control, and buffer only without hepatocytes as 0% control. These were further diluted 4 μl with 891 μl KHB buffer (InVitroGRO catalog number Z99074) to provide 2× dosing solution. To each well of 24 well plate, 250 μl of the 2× dosing solution was added to each well with 250 μl of hepatocytes cells (1×10^6 viable cells/ml per well) or KHB for control samples to achieve a final compound concentration of 1 μM during incubation. The final solvent concentration was 0.01% DMSO and 0.25% ACN. The culture plate was placed on a rocker and incubated at 37° C., 5% CO2. Samples were collected at time 0, 1, 3, and 6 hours. The loss of parent compound was determined using LC-MS methods against a standard curve.

[2] = tested on: basophils (CD63 expression) in human whole blood; experiment: 384-well HTBS Whole Blood CD63 Basophil Assay; type: cell-based; conditions: human whole blood (25% blood); for IC50: comparison table; for EC50: Homo sapiens, anti-FceRI mAb activation
Method: Syk activity was assessed in relation to reduced activation of basophils as measured by the expression of CD63 in a human whole blood basophil cellular assay (25% blood). Basophil activation was measured in human whole blood using the Flow CAST kit (Buhlmann Laboratories AG, Baselstrasse, Switzerland) following the protocol provided by the manufacturer with minor modifications. Fresh human whole blood in heparin was collected and delivered same day (AllCells, Emeryville, Calif.). Whole blood samples were incubated with either DMSO (1% final) or serial diluted compounds in DMSO for 60 minutes at 37° C. Basophils were activated using the anti-FceRI mAb and stained with anti-CD63-FITC and anti-CCR3-PE for 20 minutes at 37° C. (per well: 50 μL of whole blood was mixed with 113 μL of stimulation buffer, 8.5 μL anti-FceRI mAb, 8.5 μL Ab stain CCR3-PE/CD63-FITC). Cells were centrifuged at 1000×g for 18 minutes and 150 μL/well of supernatant removed. Red blood cells were lysed and cells fixed by 2 rounds of cell lysing: resuspending cell pellets with 150 μL/well 1× lysis buffer, incubating at room temperature for 10 minutes, and collecting cell pellets by centrifuging for 1200 rpms for 5 minutes. Cells were washed with 150 μL/well wash buffer twice, and resuspended in a final volume of 75 μL/well of wash buffer for either immediate flow cytometery analysis or overnight incubation at 4° C. followed by flow cytometry analysis. Degranulation (basophil activation) was detected by CD63 surface expression on CCR3 positive cells. The percent CD63 positive cells within the gated basophil population were determined and normalized to the DMSO (negative control) and control compound (positive control).

[3] = tested on: aberrant GVHD B-cell populations; conditions: ex vivo; cited from earlier work

solubility kinetic at 24 h [1] [µM]	Hheps CL (hepatocytes) [mL/min/kg]	IC50 [2] [nM]	EC50 [2] [nM]	Structure (SMILES)	function and frequency of aberrant GVHD B-cell populations [3]
> 90	1.5	63	–	Nc1cncc(-c2cn3ccnc3c(Nc3ccc(N4CCO[C@@H](CO)C4)cc3)n2)n1 [Ex.-3, (R)-(4-(4-((6-(6-aminopyrazin-2-yl)imidazo[1,2-a]pyrazin-8-yl)amino)phenyl)morpholin-2-yl)methanol]	–
> 90	1.33	128	< 200	Nc1cncc(-c2cn3ccnc3c(Nc3ccc(N4CCN(CC(CO)CO)CC4)cc3)n2)n1 [Ex.-6, 2-((4-(4-((6-(6-aminopyrazin-2-yl)imidazo[1,2-a]pyrazin-8-yl)amino)phenyl)piperazin-1-yl)methyl)propane-1,3-diol]	–
> 90	1.17	120	< 200	Nc1cncc(-c2cn3ccnc3c(Nc3ccc(N4CCN(C5COC5)CC4)c(OCCO)c3)n2)n1 [Ex.-5, 2-(5-((6-(6-aminopyrazin-2-yl)imidazo[1,2-a]pyrazin-8-yl)amino)-2-(4-(oxetan-3-yl)piperazin-1-yl)phenoxy)ethanol]	–
> 90	1.33	157	< 200	Cc1c(-c2cncc(N)n2)nc(Nc2ccc(N3CCN(C4COC4)CC3)cc2)c2nccn12 [Ex.-4, 6-(6-aminopyrazin-2-yl)-5-methyl-N-(4-(4-(oxetan-3-yl)piperazin-1-yl)phenyl)imidazo[1,2-a]pyrazin-8-amine]	–
–	–	–	–	COc1cc(Nc2ncc(F)c(Nc3ccc4c(n3)N(COP(=O)(O)O)C(=O)C(C)(C)O4)n2)cc(OC)c1OC [fostamatinib]	selectively reduce the function and frequency of aberrant GVHD B-cell populations
